# Measurements as given in US20260166000A1, “1,8-CINEOLE CONTAINING COMPOSITION FOR THERAPEUTIC USE” (Maria Clementine Martin Klosterfrau Vertriebsgesellschaft …, priority 2020, published 2026).
# Entries after “also recorded” stand apart in the source; their conditions may differ.
# How the values were obtained:
# [1] = test system: intestinal microbiome; assay: Microbiome sequencing of stool samples, principal coordinates analysis (PCoA); format: in vivo, human; conditions: patients with polyposis nasi; before vs after 2-week ingestion, 200 mg 3 times a day (Soledum forte)
# Description: (§1) As part of the studies, the stool samples of patients with polyposis nasi are analyzed under the influence of 1,8-cineole. For this purpose, a stool sample is first taken before starting the administration of 1,8-cineole and then again after 2 weeks of taking 1,8-cineole 3 times a day (Soledum® forte, content of 1,8-cineole: 200 mg).
# (§2) Stool Stabilizer (company: Stratec Molecular) is added to the stool samples and initially stored at a temperature of −20° C. until further processing. Subsequent DNA extraction is performed using the PSP Spin Stool DNA Plus kit according to the manufacturer's instructions (Stratec Molecular). Finally, the isolated DNA is used for microbiome sequencing (TG MiSeq Reagent Kit v3 & NEBNext® Library Quant Kit for Illumina) and analyzed.
# The results are illustrated in FIG. 1 in the form of principal coordinate analysis (PCoA) of the examined stool samples of the patients (1 to 5) with polyposis nasi before (without labeling, unfilled circle symbols) and after 2-week ingestion of 1,8-cineole (marked with “*”, filled circle symbols).
# [2] = test system: Lachnospiraceae, Bifidobacterium or Faecalibacterium; assay: Microbiome sequencing of stool samples, bacterial genera; format: in vivo, human; conditions: patients with polyposis nasi; after 2-week therapy, 200 mg 3 times a day
# Description: as §1, §2
# (§3) Following this initial evaluation regarding existing alterations or changes in the intestinal microbiome of patients with polyposis nasi after 2-week ingestion of 1,8-cineole, a detailed evaluation of the microbiome sequencing performed will be performed regarding the bacterial genera identified.
# [3] = test system: bacteria of the family Ruminococcacea or the genus Ruminococcus; assay: as above; format: in vivo, human; conditions: patients with polyposis nasi; after 2-week ingestion, 200 mg 3 times a day
# Description: as §1, §2, §3
# [4] = test system: bacterial genus Prevotella; assay: as above; format: in vivo, human; conditions: patients with polyposis nasi; after 2-week ingestion, 200 mg 3 times a day
# Description: as §1, §2, §3
# [5] = test system: genus Bacteroides; assay: as above; format: in vivo, human; conditions: patients with polyposis nasi; after 2-week therapy, 200 mg 3 times a day
# Description: as §1, §2, §3
# [6] = test system: cellular complexes of circulating platelets (CD41) with leukocytes; assay: Flow cytometry of cellular complexes of circulating platelets with leukocytes in blood; format: in vivo, human; conditions: for cellular complexes, neutrophils (Neutros), after / cellular complexes, lymphocytes (Lymphos), after / cellular complexes, eosinophils (Eosinos), after / cellular complexes, monocytes (Monos), after: blood of patients with polyposis nasi, after 2-week administration
# Source text: Further, these cellular complexes will be specified in more detail by flow cytometer with respect to different leukocyte populations and with respect to the influence of 1,8-cineole.
# [7] = test system: monocytes circulating in the blood; assay: Flow cytometry of monocyte subtypes (CD14/CD16) in blood; format: in vivo, human
# Description: The monocytes circulating in the blood can be divided into the three different subtypes, namely “classical”, “intermediate” and “non-classical”, on the basis of their surface proteins CD14 and CD16 by flow cytometry. In flow cytometry, cells are analyzed for cell size, granularity and fluorescent labeling of specific epitopes by passing specific lasers. This allows different cell populations to be differentiated and characterized. […] These observations are now comprehensively analyzed in additional patients individually by flow cytometer, especially under the influence of 1,8-cineole. […] In this regard, reference can also be made to FIG. 5A/B.
# [8] = test system: patients with polyposis nasi; assay: Patient perception and clinical therapy of polyposis nasi; format: in vivo, human
# Description: In addition to the molecular biological investigations, the individual perception and quality of life of the patients with regard to the 2-week intake of 1,8-cineole is also surveyed. […] In 38 patients (23 men/15 women between 28 and 72 years, average age 54 years) each with polyposis nasi a therapy with 1,8-cineole was performed (3 times 200 mg 1,8-cineole in the form of capsules “Soledum® forte”).
# [9] = test system: Chronic polypous sinusitis; assay: Clinical use in chronic polypous sinusitis; format: in vivo, human
# Description: (§4) In addition, the effect of 1,8-cineole is further investigated on the basis of the following areas of application, with 200 mg of 1,8-cineole being administered 3 times a day for the period indicated in each case (Soledum® forte): • 1. Chronic polypous sinusitis • 2. Chronic recurrent catarrhal sinusitis • 3. Chronic polyposis otitis media without cholesteatoma • 4. Chronic polyposis otitis media with cholesteatoma • Ad 1.
# [10] = test system: Chronic recurrent catarrhal sinusitis; assay: Clinical use in chronic recurrent catarrhal sinusitis; format: in vivo, human
# Description: as §4
# [11] = test system: Chronic polyposis otitis media without cholesteatoma; assay: Clinical use in chronic polyposis otitis media without cholesteatoma; format: in vivo, human
# Description: as §4
# [12] = test system: Chronic polyposis otitis media with cholesteatoma; assay: Clinical use in chronic polyposis otitis media with cholesteatoma; format: in vivo, human
# Description: as §4
# [13] = test system: Patients with persistent bronchial asthma; assay: Clinical use in persistent bronchial asthma as add-on therapy; format: in vivo, human
# [14] = cited from earlier work
# [15] = 38 patients with polyposis nasi, 3 times 200 mg, Soledum forte capsules
# [16] = one case, small polyps on the olfactory groove, after 2 weeks
# [17] = 200 mg 3 times a day, 2-week administration, preoperatively
# [18] = 2-week administration, preoperatively, previously refractory otorrhea (local and systemic antibiotics)
# [19] = after tympanoplasty, renewed otorrhea with recurrent perforation, 4-week administration
# [20] = 2-week administration, preoperatively
# [21] = after tympanoplasty, renewed otorrhea with recurrent perforation, 4 weeks of administration
# [22] = twelve weeks of continuous therapy
structure (smiles),measurement,setting,value
"CC12CCC(CC1)C(C)(C)O2 [1,8-cineole, 1,3,3-trimethyl-2-oxabicyclo[2.2.2]octane]",shift of beta diversity (PCoA) of stool samples,[1],clear shift
same,"occurrence of Lachnospiraceae, Bifidobacterium or Faecalibacterium",[2],certain changes or shifts with a tendency to increase
same,bacteria of the family Ruminococcacea or genus Ruminococcus,[3],significant increase
same,presence of Prevotella in the intestine,[4],significantly reduced; also recorded: almost complete disappearance
same,occurrence of Bacteroides in the intestinal microbiome,[5],significantly more abundant
same,"cellular complexes, neutrophils (Neutros), after","[6]; Table 2 (data n2), before 5.37%",5.09%
same,"cellular complexes, lymphocytes (Lymphos), after","[6]; Table 2 (data n2), before 5.4%",5.12%
same,"cellular complexes, eosinophils (Eosinos), after","[6]; Table 2 (data n2), before 10.7%",4.8%
same,"cellular complexes, monocytes (Monos), after","[6]; Table 2 (data n2), before 16.8%",6.28%
same,"cellular complexes, eosinophils (Eosinos), after","[6]; data n1, before 7.3%",5.92%
same,"cellular complexes, lymphocytes (Lymphos), after","[6]; data n1, before 12.4%",5.54%
same,"cellular complexes, neutrophils (Neutros), after","[6]; data n1, before 13.9%",5.02%
same,"cellular complexes, monocytes (Monos), after","[6]; data n1, before 14.7%",8.79%
same,monocyte complexes in blood,"[6]; patients with polyposis nasi, after taking over a period of two weeks",massive reduction
same,"monocyte distribution, additional patients analysed individually","[7]; additional patients, 2-week therapy (FIG. 5A/B)",restoration of the monocyte distribution
same,"CD16 ""classical"" monocytes (CD16 neg.)",[7]; after 2-week therapy (FIG. 5A),significant increase
same,"""intermediate"" monocytes (CD16 pos.)",[7]; after 2-week therapy (FIG. 5B),clear decrease
same,distribution of monocyte subpopulations,"[7]; patients with polyposis nasi, after 2-week intake, compared with healthy donors (FIG. 4)",marked normalization or reversion
same,nasal breathing,[8]; [15],correspondingly improved
same,secretion drainage,[8]; [15],significantly improved
same,nasal polyps,[8]; [16],significant decrease
same,olfactory sensation,[8]; [16],marked improvement
same,patients' response (individual perception and quality of life),"[8]; polyposis patients consulted, 2-week intake",predominantly positive
same,accompanying symptoms of the polyps (anterior and posterior watery rhinorrhea),[9]; [17],reduction of the accompanying symptoms
same,olfactory performance,"[9]; 200 mg 3 times a day, 2-week administration, preoperatively, individual cases",In individual cases also improvement
same,wound healing,[9]; postoperative,positive influence
same,recurrences and systemic cortisone administration,"[9]; postoperative, in combination with a nasal steroid",reduction of recurrences and systemic cortisone administration
same,concomitant symptoms of polyps (anterior and posterior watery rhinorrhea),[10]; [17],decrease in concomitant symptoms
same,olfactory performance,[10]; [17],significant improvement
same,use of nasal steroids,[10]; postoperative,reduction of nasal steroids
same,wound healing,[10]; postoperative,positive influence
same,otorrhea,[11]; [18],"decrease in otorrhea, allowing surgery"
same,otorrhea,[11]; [19],decrease in otorrhea
same,tympanic membrane,[11]; [19],spontaneous tympanic membrane closure
same,cholesteatom masses,[12]; [20],no reduction
same,inflamed mucosa of middle ear and mastoid,[12]; [20],positive effect
same,concomitant otorrhea,[12]; [18],"decrease in concomitant otorrhea, allowing surgery"
same,otorrhea,[12]; [21],decrease of otorrhea
same,tympanic membrane,[12]; [21],spontaneous tympanic membrane closure
same,tolerability,[13]; 4 times 200 mg/die perorally,well tolerated without side effects
same,lung function,"[13]; 4 times 200 mg/die perorally, one week, with inhaled glucocorticoid, long-acting beta-2-sympathomimetic and theophylline",slight to moderate improvement
same,reduction of inhaled glucocorticoid requirements,"[13]; 4 times 200 mg/die perorally, twelve weeks of continuous therapy",more than 50%
same,glucocorticoid use in some of the patients treated,[13]; [22],temporarily discontinued altogether
same,need for betamimetics in some patients,[13]; [22],significantly reduced
same,solubility in water,[14],insoluble
